How the values were obtained:
MMP-9 = target: T1, MMP-9 (Homo sapiens, UniProt P14780); assay: Assay for inhibitory activities on MMPs (fluorogenic peptide substrate): MMP-9; assay type: biochemical; settings: substrate MOCAc-Pro-Leu-Gly-Leu-A2Pr(DNP)-Ala-Arg-NH2
T1 construct: endogenous in cells; host or cells: HT1080 human fibrosarcoma cells, TPA-stimulated; purified in house from conditioned medium
Source text: MMP-9 was isolated and purified by using a combination of procedures described in previous reports as follows. Yasunori Okada, Yukio Gonoji, Katsumi Naka, Katsuro Tomita, Isao Nakanishi, Kazushi Iwata, Kyoko Yamashita, and Taro Hayakawa: Matrix metalloproteinase 9 (92-kDa gelatinase/type IV collagenase) from HT1080 human fibrosarcoma cells. Purification and activation of the precursor and enzymic properties. J. Biol. Chem., 267 (1.992) 21712-21719. Yasunori Okada, Tatsuhisa Morodomi, Jan J, Enghild, Ko Suzuki, Atsushi Yasui, Isao Nakanishi, Guy Salvesen and Hideaki Nagase: Matrix metalloproteinase 2 from human rheumatoid synovial fibroblasts. Purification and activation of the precursor and enzymic properties. Eur. J. Biochem. 194 (1990) 721-730. Robin V Ward, Rosalind M Hembry, John J Reynolds and Gillian Murphy: The purification of tissue inhibitor of metalloproteinase-2 from its 72 kDa progelatinase complex. Biochem. J. 278 (1991) 179-187.
Briefly, human fibrosarcoma ATCC HT1080 cell line was cultured to confluent in Dulbecco's Modified Medium (DMEM) containing 10% fetal-calf serum at 37° C. for 48 hours. Subsequently, the medium of confluent culture was changed to serum-free DMEM medium. To obtain MMP-9, Phorbol-12-myristate-13-acetate (TPA) must be added to this serum-free DMEM medium at a concentration of 50 ng/ml. The TPA treated medium was centrifuged at 3000 rpm for 15 min and the supernatant was concentrated to 450 ml by a Toyo-Roshi UP-20 apparatus with an ultrafiltration membrane. Then, proMMP-9 in this concentrated solution was purified by using columns of Gelatin-Sepharose and Concanavalin A-Sepharose. The pool containing proMMP-9 was dialyzed, concentrated (Toyo-Roshi UP-20) and applied to columns of Sephacryl S-200 and Green A matrix for the separation from TIMPs. The obtained proMMP-9 fraction was activated by TPCK-Trypsin (final conc. […] reaction mix.).
(§1) The enzymatic activity on MMPs was analyzed by the method described in “C. Graham Knight, Frances Willenbrock and Gillian Murphy: A novel coumarin-labelled peptide for sensitive continuous assays of the matrix metalloproteinases: FEBS LETT., 296, (1992), 263-266”. The substrate: MOCAc-Pro-Leu-Gly-Leu-A2Pr(DNP)-Ala-Arg-NH2 was purchased from Peptide Institute, Inc., Osaka, Japan. The measurement of the inhibitory activities (IC50) was carried out by the following four methods;
(§2) (A) Reaction with substrate, enzyme (MMPs) and inhibitor
(§3) (B) Reaction with substrate and inhibitor, without enzyme
(§4) (C) Reaction with substrate and enzyme (MMPs), without inhibitor
(§5) (D) Reaction with substrate only
(§6) IC50 values were calculated by using the following formula and each fluorescence values of above four methods (A to D).
(§7) % inhibition={1−(A−B)/(C−D)}×100
(§8) IC50 means the concentration required to inhibit 50% of the enzyme activity.

MMP-1 = target: T2, MMP-1 (Homo sapiens, UniProt P03956); assay: Assay for inhibitory activities on MMPs (fluorogenic peptide substrate): MMP-1; assay type: biochemical; settings: substrate MOCAc-Pro-Leu-Gly-Leu-A2Pr(DNP)-Ala-Arg-NH2
T2 construct: purchased Yagai
T2 sequence (P03956 100-469): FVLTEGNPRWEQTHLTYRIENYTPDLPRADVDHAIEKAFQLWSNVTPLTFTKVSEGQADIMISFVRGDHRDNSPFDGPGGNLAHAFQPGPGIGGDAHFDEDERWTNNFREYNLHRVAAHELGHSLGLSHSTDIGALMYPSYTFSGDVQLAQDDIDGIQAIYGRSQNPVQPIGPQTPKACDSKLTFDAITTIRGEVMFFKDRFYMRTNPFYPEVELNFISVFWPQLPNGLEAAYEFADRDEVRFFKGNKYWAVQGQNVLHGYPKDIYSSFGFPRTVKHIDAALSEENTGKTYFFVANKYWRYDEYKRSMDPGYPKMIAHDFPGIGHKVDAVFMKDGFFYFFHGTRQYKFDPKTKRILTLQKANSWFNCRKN
Protocol: MMP-1 was purchased from Yagai.
as §1, §2, §3, §4, §5, §6, §7, §8

MMP-2 = target: T3, MMP-2 (Homo sapiens, UniProt P08253); assay: Assay for inhibitory activities on MMPs (fluorogenic peptide substrate): MMP-2; assay type: biochemical; settings: substrate MOCAc-Pro-Leu-Gly-Leu-A2Pr(DNP)-Ala-Arg-NH2
T3 construct: purchased Calbiochem-Novabiochem International, Inc
T3 sequence (P08253 110-660): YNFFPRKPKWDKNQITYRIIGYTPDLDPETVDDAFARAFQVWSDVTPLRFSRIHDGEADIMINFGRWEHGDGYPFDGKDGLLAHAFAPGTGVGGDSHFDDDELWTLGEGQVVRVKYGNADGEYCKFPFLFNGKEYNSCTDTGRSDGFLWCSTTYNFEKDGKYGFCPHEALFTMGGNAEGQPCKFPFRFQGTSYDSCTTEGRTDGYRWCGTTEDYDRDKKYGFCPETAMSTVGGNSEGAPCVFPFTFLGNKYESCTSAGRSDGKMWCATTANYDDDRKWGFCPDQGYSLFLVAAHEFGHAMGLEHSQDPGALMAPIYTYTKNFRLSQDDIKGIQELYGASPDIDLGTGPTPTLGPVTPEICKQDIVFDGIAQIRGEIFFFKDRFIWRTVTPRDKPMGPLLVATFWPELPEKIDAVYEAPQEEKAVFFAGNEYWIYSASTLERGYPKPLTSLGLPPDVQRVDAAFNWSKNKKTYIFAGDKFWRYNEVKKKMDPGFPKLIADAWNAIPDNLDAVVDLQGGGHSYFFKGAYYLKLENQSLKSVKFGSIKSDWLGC
Protocol: MMP-2 was purchased from Calbiochem-Novabiochem International, Inc.
as §1, §2, §3, §4, §5, §6, §7, §8

MMP-13 catalytic domain = target: T4, MMP-13 catalytic domain (Homo sapiens, UniProt P45452); assay: Assay for inhibitory activities on MMPs (fluorogenic peptide substrate): MMP-13; assay type: biochemical; settings: substrate MOCAc-Pro-Leu-Gly-Leu-A2Pr(DNP)-Ala-Arg-NH2
T4 construct: catalytic domain (^104Tyr˜^267Gly); His-tag; enterokinase digestion-site; made in house; host or cells: Escherichia coli
Protocol: (§9) In regard to MMP-13, mRNA was prepared from carcinoma cell SW1353 derived from human cartilage stimulate by IL-1, TNF and catalytic domain (^104Tyr˜^267Gly) was amplified with RT-PCR. This was cloned in Escherichia coli expression vector pTrc99AHE inserted with His-tag sequence and enterokinase digestion-site, induced and expressed by IPTG (Isopropyl-β-D-thiogalactopyranoside) and expressed in a insoluble fraction. Isolation of MMP-1.3 from a insoluble fraction was carried out by dissolving in modifier (6M urea) by a usual method and purification with metal chelate chromatography (Ni Chelateing Sepharose). And then removing modifier (6M urea) with dialyze and refolding of the enzyme spontaneously gave activated MMP-13.
as §1, §2, §3, §4, §5, §6, §7, §8

MMP-12 catalytic domain = target: T5, MMP-12 catalytic domain (Homo sapiens, UniProt P39900); assay: Assay for inhibitory activities on MMPs (fluorogenic peptide substrate): MMP-12; assay type: biochemical; settings: substrate MOCAc-Pro-Leu-Gly-Leu-A2Pr(DNP)-Ala-Arg-NH2
T5 construct: catalytic domain(^100Phe˜^263Gly); His-tag; enterokinase digestion-site; made in house; host or cells: Escherichia coli
Protocol: as §9, with “MMP-12,” for “MMP-13, mRNA was prepared from carcinoma cell SW1353 derived from human cartilage stimulate by IL-1, TNF and”, “domain(^100Phe˜^263Gly)” for “domain (^104Tyr˜^267Gly)”, “RT-PCR from Human Placenta Total RNA.” for “RT-PCR.”, “MMP-12” for “MMP-1.3”, “dialysis” for “dialyze”, “MMP-12.” for “MMP-13.”
as §1, §2, §3, §4, §5, §6, §7, §8

MMP-8 catalytic domain = target: T6, MMP-8 catalytic domain (Homo sapiens, UniProt P22894); assay: Assay for inhibitory activities on MMPs (fluorogenic peptide substrate): MMP-8; assay type: biochemical; settings: substrate MOCAc-Pro-Leu-Gly-Leu-A2Pr(DNP)-Ala-Arg-NH2
T6 construct: catalytic domain (^99Phe˜^262Gly); His-tag; enterokinase digestion-site; made in house; host or cells: Escherichia coli
Source text: In regard to MMP-8, catalytic domain (^99Phe˜^262Gly) was amplified with PCR using commercial available Human Bone Marrow cDNA. This was cloned in Escherichia. coli expression vector pTrc99AHE inserted with His-tag sequence and enterokinase digestion-site, induced and expressed by IPTG (Isopropyl-β-D-thiogalactopyranoside) and expressed in a insoluble fraction (Than F. Ho, M. Walid Qoronfleh, Robert C. Wahl, Trica A. Pulvino, Karen J. Vavra, Joe Falvo, Tracey M. Banks, Patricia G. Brake and Richard B. Ciccarelli: Gene expression, purification and characterization of recombinant human neutrophil collagenase. Gene 146, (1994) 297-301, Prepared by the a improved method of this material). Isolation of MMP-8 from insoluble fraction was carried out by dissolving in modifier (6M urea) by a usual method and purification with metal chelate chromatography. And then removing modifier (6M urea) with dialysis and refolding of the enzyme spontaneously gave activated MMP-8.
as §1, §2, §3, §4, §5, §6, §7, §8

T5 sequence (P39900 100-263): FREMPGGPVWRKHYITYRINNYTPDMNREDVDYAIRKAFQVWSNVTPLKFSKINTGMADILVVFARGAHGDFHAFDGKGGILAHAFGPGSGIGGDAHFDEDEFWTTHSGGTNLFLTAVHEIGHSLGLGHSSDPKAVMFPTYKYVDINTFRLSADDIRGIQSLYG
T1 sequence (P14780 107-707 limits assumed): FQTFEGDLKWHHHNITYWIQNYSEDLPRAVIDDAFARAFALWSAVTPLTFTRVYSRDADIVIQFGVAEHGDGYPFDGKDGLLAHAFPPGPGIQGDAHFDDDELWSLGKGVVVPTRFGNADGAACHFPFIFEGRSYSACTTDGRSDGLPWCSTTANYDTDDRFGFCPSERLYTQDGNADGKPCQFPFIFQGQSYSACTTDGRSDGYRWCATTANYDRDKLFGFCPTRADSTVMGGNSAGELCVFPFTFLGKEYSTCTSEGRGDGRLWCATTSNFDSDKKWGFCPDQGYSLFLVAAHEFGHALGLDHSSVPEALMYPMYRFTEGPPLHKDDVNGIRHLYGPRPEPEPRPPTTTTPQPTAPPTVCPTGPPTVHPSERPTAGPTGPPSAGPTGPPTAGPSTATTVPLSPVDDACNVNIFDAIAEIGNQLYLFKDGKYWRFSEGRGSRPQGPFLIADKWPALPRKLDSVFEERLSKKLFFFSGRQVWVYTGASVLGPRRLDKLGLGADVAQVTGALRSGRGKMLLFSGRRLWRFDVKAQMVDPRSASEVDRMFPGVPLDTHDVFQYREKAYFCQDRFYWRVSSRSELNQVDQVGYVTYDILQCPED
T6 sequence (P22894 99-262): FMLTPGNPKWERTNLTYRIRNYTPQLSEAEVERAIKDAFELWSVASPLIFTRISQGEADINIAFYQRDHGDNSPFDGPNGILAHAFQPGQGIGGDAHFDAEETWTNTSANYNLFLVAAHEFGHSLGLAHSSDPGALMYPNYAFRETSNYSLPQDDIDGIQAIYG

CC(C)[C@H](NS(=O)(=O)c1ccc(C#Cc2ccc3ccccc3c2)cc1)C(=O)O [Compound A-1]
IC50 (MMP-9): 0.77 µM
IC50 (MMP-1): > 10 µM
melting point: 171 to 173 °C
IC50 (MMP-2): 0.4 µM
IC50 (MMP-13 catalytic domain): 0.3 µM
IC50 (MMP-12 catalytic domain): 0.0076 µM
IC50 (MMP-8 catalytic domain): 0.57 µM

O=C(O)[C@H](Cc1c[nH]c2ccccc12)NS(=O)(=O)c1ccc(C#Cc2ccc3ccccc3c2)cc1 [Compound A-15]
IC50 (MMP-9): 0.9 µM
IC50 (MMP-1): > 10 µM
IC50 (MMP-2): 0.46 µM
IC50 (MMP-13 catalytic domain): 0.89 µM
IC50 (MMP-12 catalytic domain): 0.032 µM
IC50 (MMP-8 catalytic domain): > 10 µM

O=C(O)C[C@@H](NS(=O)(=O)c1ccc(C#Cc2ccc3ccccc3c2)s1)C(=O)O [Compound B-12]
IC50 (MMP-9): 1.1 µM
IC50 (MMP-1): > 10 µM
IC50 (MMP-2): 1.25 µM
IC50 (MMP-13 catalytic domain): 1.4 µM
IC50 (MMP-12 catalytic domain): 0.04 µM
IC50 (MMP-8 catalytic domain): 2.6 µM

C[C@H](NS(=O)(=O)c1ccc(C#Cc2ccc3ccccc3c2)s1)C(=O)O [Compound B-7]
IC50 (MMP-9): 6.31 µM
IC50 (MMP-1): > 10 µM
IC50 (MMP-2): 2.03 µM
IC50 (MMP-13 catalytic domain): > 10 µM
IC50 (MMP-12 catalytic domain): 0.16 µM
IC50 (MMP-8 catalytic domain): 7.79 µM

O=C(O)[C@@H](Cc1ccccc1)NS(=O)(=O)c1ccc(-n2nnc(-c3ccc4ccccc4c3)n2)cc1 [Compound C-1]
IC50 (MMP-9): > 10 µM
IC50 (MMP-1): > 10 µM
IC50 (MMP-2): 0.14 µM
IC50 (MMP-13 catalytic domain): 0.45 µM
IC50 (MMP-12 catalytic domain): 0.055 µM
IC50 (MMP-8 catalytic domain): > 10 µM

CSCC[C@H](NS(=O)(=O)c1ccc(C#Cc2ccc3ccccc3c2)s1)C(=O)O [Compound B-11]
IC50 (MMP-9): 4.9 µM
IC50 (MMP-1): > 10 µM
IC50 (MMP-2): 1.86 µM
IC50 (MMP-13 catalytic domain): 6.14 µM
IC50 (MMP-12 catalytic domain): 0.11 µM
IC50 (MMP-8 catalytic domain): 2.89 µM

O=C(Nc1ccc(S(=O)(=O)N[C@@H](Cc2ccccc2)C(=O)O)cc1)c1ccc2ccccc2c1 [Compound D-2]
IC50 (MMP-9): 6.56 µM
IC50 (MMP-1): > 10 µM
IC50 (MMP-2): 0.56 µM
IC50 (MMP-13 catalytic domain): 2.33 µM
IC50 (MMP-12 catalytic domain): 0.15 µM
IC50 (MMP-8 catalytic domain): 4.51 µM

O=C(O)CNS(=O)(=O)c1ccc(C#Cc2ccc3ccccc3c2)cc1 [Compound A-9]
IC50 (MMP-9): 1.8 µM
IC50 (MMP-1): > 10 µM
IC50 (MMP-2): 0.25 µM
IC50 (MMP-13 catalytic domain): 2.88 µM
IC50 (MMP-12 catalytic domain): 0.069 µM
IC50 (MMP-8 catalytic domain): > 10 µM

O=C(O)[C@H](Cc1ccccc1)NS(=O)(=O)c1ccc(-n2nnc(-c3ccc4ccccc4c3)n2)cc1 [Compound C-2]
IC50 (MMP-9): > 10 µM
IC50 (MMP-1): > 10 µM
IC50 (MMP-2): > 10 µM
IC50 (MMP-13 catalytic domain): > 10 µM
IC50 (MMP-12 catalytic domain): 0.14 µM
IC50 (MMP-8 catalytic domain): > 10 µM

CC(C)[C@@H](NS(=O)(=O)c1ccc(C#Cc2ccc3ccccc3c2)s1)C(=O)O [Compound B-4]
IC50 (MMP-9): 0.53 µM
IC50 (MMP-1): > 10 µM
IC50 (MMP-2): 0.24 µM
IC50 (MMP-13 catalytic domain): 0.64 µM
IC50 (MMP-12 catalytic domain): 0.011 µM
IC50 (MMP-8 catalytic domain): 0.54 µM

O=C(O)[C@@H](Cc1ccccc1)NS(=O)(=O)c1ccc(C#Cc2ccc3ccccc3c2)cc1 [Compound A-2]
IC50 (MMP-9): > 10 µM
IC50 (MMP-1): > 10 µM
IC50 (MMP-2): > 10 µM
IC50 (MMP-13 catalytic domain): > 10 µM
IC50 (MMP-12 catalytic domain): 0.016 µM
IC50 (MMP-8 catalytic domain): > 10 µM

O=C(O)[C@H](Cc1ccccc1)NS(=O)(=O)c1ccc(C#Cc2ccc3ccccc3c2)s1 [Compound B-2]
IC50 (MMP-9): > 10 µM
IC50 (MMP-1): > 10 µM
IC50 (MMP-2): > 10 µM
IC50 (MMP-13 catalytic domain): > 10 µM
IC50 (MMP-12 catalytic domain): 0.24 µM
IC50 (MMP-8 catalytic domain): > 10 µM

O=C(O)CNS(=O)(=O)c1ccc(C#Cc2ccc3ccccc3c2)s1 [Compound B-9]
IC50 (MMP-9): 4.23 µM
IC50 (MMP-1): > 10 µM
IC50 (MMP-2): 1.27 µM
IC50 (MMP-13 catalytic domain): 7.18 µM
IC50 (MMP-12 catalytic domain): 0.26 µM
IC50 (MMP-8 catalytic domain): > 10 µM
